Test results as given in ChEMBL document CHEMBL4699502, “Discovery of 1-(1H-indazol-4-yl)-3-((1-phenyl-1H-pyrazol-5-yl)methyl) ureas as potent and thermoneutral TRPV1 antagonists” (Bioorg Med Chem Lett, 2020).
Calls of active or inactive are those of the source. No cut-off for these calls is given here.

target: T1, Transient receptor potential cation channel subfamily V member 1 (Homo sapiens, UniProt Q8NER1); test: Partial agonist activity at human TRPV1 expressed in CHO-K1 cells assessed as induction of Ca2+ response treated with compound 6 mins prior to capsaicin addition and measured after overnight incubation by FLIPR assay; assay type: cell-based; settings: filed as partial agonist
T1 sequence (Q8NER1 whole entry): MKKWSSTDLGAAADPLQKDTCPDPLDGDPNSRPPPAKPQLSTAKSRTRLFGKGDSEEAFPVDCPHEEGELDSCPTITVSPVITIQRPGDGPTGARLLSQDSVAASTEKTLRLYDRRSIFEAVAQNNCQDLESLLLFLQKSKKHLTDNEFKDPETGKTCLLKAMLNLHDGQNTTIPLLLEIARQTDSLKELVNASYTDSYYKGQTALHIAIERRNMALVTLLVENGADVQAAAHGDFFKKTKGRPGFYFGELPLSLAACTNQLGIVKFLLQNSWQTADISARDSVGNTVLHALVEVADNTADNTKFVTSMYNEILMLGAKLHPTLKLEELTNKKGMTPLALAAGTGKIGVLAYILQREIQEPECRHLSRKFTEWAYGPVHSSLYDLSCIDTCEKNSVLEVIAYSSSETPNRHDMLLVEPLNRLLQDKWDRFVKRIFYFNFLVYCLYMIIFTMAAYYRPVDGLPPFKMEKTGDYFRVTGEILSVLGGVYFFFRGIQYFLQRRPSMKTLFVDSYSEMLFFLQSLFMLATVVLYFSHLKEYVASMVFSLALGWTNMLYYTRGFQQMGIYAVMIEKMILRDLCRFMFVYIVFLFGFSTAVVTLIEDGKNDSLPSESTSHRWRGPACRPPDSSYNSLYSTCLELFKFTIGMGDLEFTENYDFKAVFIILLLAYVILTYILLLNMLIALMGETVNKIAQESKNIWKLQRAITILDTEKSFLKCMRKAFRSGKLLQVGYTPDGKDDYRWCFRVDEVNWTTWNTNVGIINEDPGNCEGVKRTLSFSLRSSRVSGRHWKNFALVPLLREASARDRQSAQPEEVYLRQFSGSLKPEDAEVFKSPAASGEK

| Activity | Compound |
| --- | --- |
| Active | CC(C)(C)c1cc(CNC(=O)Nc2ccc3cn[nH]c3c2)n(-c2cccc(Cl)c2)n1 |
| Active | Cn1ncc2ccc(NC(=O)NCc3cc(C(F)(F)F)nn3-c3cccc(Cl)c3)cc21 |
| Active | Cc1ccc(-n2nc(C(C)(C)C)cc2CNC(=O)Nc2cccc3[nH]ncc23)cc1C |

target: T1, Transient receptor potential cation channel subfamily V member 1; test: Antagonist activity at human TRPV1 expressed in CHO-K1 cells assessed as inhibition of capsaicin-induced Ca2+ response treated with compound 6 mins prior to capsaicin addition and measured after overnight incubation by FLIPR assay; assay type: cell-based; settings: not given

| Compound | Ki |
| --- | --- |
| CC(=O)n1ncc2c(NC(=O)NCc3cc(C(C)(C)C)nn3-c3cccc(Cl)c3)cccc21 | 29.5 nM |
| CC(C)(C)c1cc(CNC(=O)Nc2cccc3[nH]ncc23)n(-c2ccc(F)cc2)n1 | 2.2 nM |
| O=C(NCc1cc(C(F)(F)F)nn1-c1ccc(F)c(Cl)c1)Nc1cccc2[nH]ncc12 | 0.6 nM |
| Cn1ncc2c(NC(=O)NCc3cc(C(F)(F)F)nn3-c3ccc(F)c(Cl)c3)cccc21 | 1.9 nM |
| Cn1ncc2c(NC(=O)NCc3cc(C(C)(C)C)nn3-c3ccc(Cl)cc3)cccc21 | 9.5 nM |
| COc1ccc(-n2nc(C(C)(C)C)cc2CNC(=O)Nc2cccc3[nH]ncc23)cc1 | 62.9 nM |
| Cn1ncc2c(NC(=O)NCc3cc(C(C)(C)C)nn3-c3ccc(C(F)(F)F)cc3)cccc21 | 12.4 nM |

More lines, now with the values ahead:

| Ki | Compound |
| --- | --- |
| 61 nM | Cn1ncc2cc(NC(=O)NCc3cc(C(F)(F)F)nn3-c3cccc(Cl)c3)ccc21 |
| 0.4 nM | Cn1ncc2c(NC(=O)NCc3cc(C(C)(C)C)nn3-c3cccc(Cl)c3)cccc21 |
| 2.5 nM | O=C(NCc1cc(C(F)(F)F)nn1-c1ccc(Cl)cc1)Nc1cccc2[nH]ncc12 |
| 3.9 nM | Cn1ncc2c(NC(=O)NCc3cc(C(F)(F)F)nn3-c3ccc(C(F)(F)F)cc3)cccc21 |
| 7 nM | Cn1ncc2c(NC(=O)NCc3cc(C(F)(F)F)nn3-c3cccc(F)c3)cccc21 |
| 2.7 nM | Cn1ncc2c(NC(=O)NCc3cc(C(F)(F)F)nn3-c3ccc(Cl)cc3)cccc21 |

same assay, conditions: filed as antagonist

| inhibition | Compound |
| --- | --- |
| Active | O=C(NCc1cc(C(F)(F)F)nn1-c1cccc(Cl)c1)Nc1ccc2cn[nH]c2c1 |

target: T1, Transient receptor potential cation channel subfamily V member 1; test: Agonist activity at human TRPV1 expressed in CHO-K1 cells assessed as induction of Ca2+ response treated with compound 6 mins prior to capsaicin addition and measured after overnight incubation by FLIPR assay; assay type: cell-based; settings: filed as agonist

| Activity | Compound |
| --- | --- |
| Active | Cn1cc2c(NC(=O)NCc3cc(C(C)(C)C)nn3-c3cccc(Cl)c3)cccc2n1 |
| Active | Cn1ncc2ccc(NC(=O)NCc3cc(C(C)(C)C)nn3-c3cccc(Cl)c3)cc21 |
| Active | Cn1ncc2cc(NC(=O)NCc3cc(C(C)(C)C)nn3-c3cccc(Cl)c3)ccc21 |
| Active | CC(C)(C)c1cc(CNC(=O)Nc2ccc3[nH]ncc3c2)n(-c2cccc(Cl)c2)n1 |
| Active | Cn1cc2c(NC(=O)NCc3cc(C(F)(F)F)nn3-c3cccc(Cl)c3)cccc2n1 |

system: not listed separately; test: Induction of hyperthermia in mouse assessed as effect on body temperature by measuring thermo-neutral activity at 10 mg/kg, po; assay type: organism-based; settings: in vivo

| Compound | Activity |
| --- | --- |
| Cn1ncc2c(NC(=O)NCc3cc(C(C)(C)C)nn3-c3cccc(Cl)c3)cccc21 | Non-Toxic |

system: not listed separately; test: In vivo antagonist activity at TRPV1 in mouse assessed as inhibition of capsaicin-induced hypothermia at 10 mg/kg, po; assay type: functional; settings: not given

| Compound | inhibition in vivo at 10 mg/kg |
| --- | --- |
| Cn1ncc2c(NC(=O)NCc3cc(C(C)(C)C)nn3-c3cccc(Cl)c3)cccc21 | 14% |
